Where “and” joins values, the source holds several entries; their conditions need not be identical. Equal values may be shown once.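 Dose response: 5 concentrations. Exposure: 48 h. Format: 96-well plates. Endpoint: linear interpolation; highest concentration if not reached. At the GI50, growth is halved. TGI is the concentration that stops growth completely.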
How the values were obtained:
Assay in all cases: growth of human tumour cells (NCI), 48 h
[1] = tested on: A549 NSCLC
[2] = tested on: HT29 colon
[3] = tested on: EKVX NSCLC
[4] = tested on: OVCAR-4 ovarian
[5] = tested on: LOX IMVI melanoma
[6] = tested on: HCT-15 colon
[7] = tested on: RXF 393 renal
[8] = tested on: HCC-2998 colon
[9] = tested on: SK-MEL-2 melanoma
[10] = tested on: SF-539 CNS

SMILES	TGI [1] [µM]	TGI [2] [µM]	TGI [3] [µM]	TGI [4]	TGI [5] [µM]	TGI [6] [µM]	TGI [7]	TGI [8] [µM]	TGI [9] [µM]	TGI [10] [µM]	GI50 [1] [µM]	GI50 [2] [µM]	GI50 [3] [µM]	GI50 [4] [µM]	GI50 [9] [µM]	GI50 [5] [µM]	GI50 [6] [µM]	GI50 [7] [µM]	GI50 [8] [µM]	GI50 [10] [µM]
CS(=O)(=O)c1ccc(/C=N/NC(N)=S)cc1	> 100	> 100	> 100	> 100 µM	> 100	> 100	> 100 µM	> 100												
CC1(C)CC23C4COC(=O)C2CCC1C3CC4=O (stereo not given)	70.3	95.2	83.8	64.2 µM	22.6	21.9	4.76 µM	37.2	40.6	45.1										
CC[C@]1(O)C[C@H]2CN(CCc3c([nH]c4ccccc34)[C@@](C(=O)OC)(c3cc4c(cc3OC)N(C=O)[C@H]3[C@@](O)(C(=O)OC)[C@H](OC(C)=O)[C@]5(CC)C=CCN6CC[C@]43[C@@H]65)C2)C1		27.2		132 µM and 135 µM			17.5 µM and 74.1 µM													
CCOc1ccc2nc(-c3ccc(O)cc3)sc2c1	> 100	> 100	55.2		> 100	> 100	> 100 µM		> 100	> 100										
C/C=C/[C@H]1O[C@@](O)([C@@H](C)[C@H](O)[C@H](C)[C@H]2OC(=O)/C(OC)=C/C(C)=C/[C@@H](C)[C@@H](O)[C@@H](CC)[C@@H](O)[C@H](C)C/C(C)=C/C=C/[C@@H]2OC)C[C@H](OC2CC(O)C(O)C(C)O2)[C@@H]1C (stereo not given in full)	12.3	8.03	11.8	32 µM		8.8	23.2 µM	11.8												
CCOC(=O)NC(Nc1ncccn1)(C(F)(F)F)C(F)(F)F		> 100	> 100		> 100	> 100	> 100 µM	> 100	> 100	> 100										
O=C(O)c1ccccc1NC(c1ccccc1)c1ccc2cccnc2c1O (stereo not given)	> 100	> 100	> 47.5	34.6 µM	43.2	> 58.9	27.7 µM	> 100	> 100	22.1										
N/C(=N\N=C/c1ccccc1O)NO	> 100	> 42	71.4	31.1 µM	> 100	> 100	25.9 µM	25.6	> 90.8	28.3										
O=C(Nc1cccc(-n2ccc3c(NC(=O)c4ccccc4)nccc32)c1)c1ccc(N2CCOCC2)c(C(F)(F)F)c1	> 100		> 100	> 70.7 µM	> 100	> 64.7	2.69 µM		20.1	3.42	0.0513	0.038	0.212	0.168	0.253	0.0427	0.037	0.0333	0.0614	0.0358
O=C(O)c1cc2ccccc2c(N=Nc2ccccc2)c1O	40.1	54.8	96.6	> 100 µM		> 100	72.5 µM													
O=[N+]([O-])c1nc(-c2ccccn2)[nH]c1[N+](=O)[O-]	> 100	> 100	> 100	> 100 µM	> 100		> 100 µM	> 100	> 100	> 100										
O=C1OC[C@@H]2[C@@H](O)CCCCCN12	> 100	> 100	> 100	> 100 µM	> 100	> 100	> 100 µM	> 100	> 100	> 100										
COc1cc2c(cc1OC)-c1cc3ccccc3c[n+]1CC2	> 100	> 100	> 100	> 100 µM	> 100		> 100 µM	> 100	> 100	> 100										
CCS(=O)(=O)N1CCC(C(C)n2c(C)c(C(=O)NCc3c(OC)cc(C)[nH]c3=O)c3ccccc32)CC1 (stereo not given)	> 100	> 100	> 100	> 100 µM	> 100	> 100	> 100 µM	> 100	> 100	> 100	> 100	> 100	> 100	> 100	> 100	> 100	> 100	> 100	> 100	> 100
O=C1OC(c2ccccc2)=N/C1=C\c1cccnc1	> 100	> 100	> 100	> 100 µM		> 100	> 100 µM	> 100	> 100	> 100										
C/C(CC/C(C)=N/O)=N\O	> 100	> 100	> 100	> 100 µM	> 100	> 100	> 100 µM	> 100	> 100	> 100										
Fc1ccc2[nH]cc(-c3nc(-c4c[nH]c5ncccc45)cs3)c2c1	> 100		> 100				> 100 µM	> 100	> 100		2.65		3.34		> 100			> 100	> 100	
COC1=C2CC(C)CC(OC)C(O)C(C)/C=C(\C)C(OC(N)=O)C(OC)/C=C\C=C(/C)C(=O)NC(=C(C=NC(C)(C)C)C1=O)C2=O (stereo not given)	37.5	21	26	14.4 µM	22.3	33.1	4.89 µM	16.6	12.3	24.2										

Source: PubChem BioAssay (NCI)
